Measurements from US20110201664A1, “Methods and Compositions for Treatment of Prostate Intraepithelial Neoplasia” (priority 2006, published 2011).

Tested on: High Grade PIN
Experiment: Treatment of a patient with High Grade PIN, repeat prostate biopsy
Assay type: in vivo, human
Details: person with High Grade PIN; 225 mg per day once daily, 30 doses; 12 biopsies two weeks after last dose; on Atorvastatin 20 mg daily
Method: A person was diagnosed as having High Grade PIN. The diagnosis was based upon 12 biopsies which were done in conjunction with ultrasound localization of the biopsy site, with careful recording of there anatomical position. The patient was started on Bexarotene 225 mg per day. The drug was given as a single dose once daily. […] During the period of therapy the patient was on Atorvastatin 20 mg daily. During the therapy, total cholesterol was 183 mg with a reference range <200 mg/dL, triglycerides were 207 with normal being less than 150 mg/dL, thyroid stimulation hormone (TSH) was 0.07 with the reference range 0.4-5.5 mIU/L, T4 total was 7.4 with the normal range 4.5-12.0 mcg/dL. The Hepatic Function Panel was normal as was the complete blood count (CBC). Two weeks following the last dose of Bexarotene the prostate was rebiopsied with 12 biopsies taken. Six of the biopsies were taken from the putative area, the rest in an enlarging target like pattern. The repeat biopsy was negative for the presence of PIN.

For `C=C(c1ccc(C(=O)O)cc1)c1cc2c(cc1C)C(C)(C)CCC2(C)C` [Bexarotene, 4-[1-(5,6,7,8-tetrahydro-3,5,5,8,8-pentamethyl-2-naphthalenyl)ethenyl] benzoic acid], the “Repeat biopsy, presence of PIN” value was “negative”.
